Results: patent US20070043076A1, “Substituted 2-arylmethylene-n-aryl-n'aryl-malonamides and analogs as activators of caspases and inducers of apoptosis” (priority 2003, published 2007)

Experiments:
T-47D [1] = assay: Inhibition of cell proliferation (GI50, CellTiter 96 AQueous One) in T-47D cells; assay type: cell-based; details: Homo sapiens, T47D, 48 h incubation, read-out: GI50 (dose for 50% inhibition of cell proliferation)
Procedure: (§1) T-47D and DLD-1 cells were grown and harvested as in Example 105. An aliquot of 90 μL of cells (2.2×10^4 cells/mL) was added to a well of a 96-well microtiter plate containing 10 μl of a 10% DMSO in RPMI-1640 media solution containing 1 nM to 100 μM of N,N′-bis-(3-trifluoromethyl-phenyl)-2-(4-isopropyl-benzylidene)-malonamide (0.1 nM to 10 μM final). An aliquot of 90 μL of cells was added to a well of a 96-well microtiter plate containing 10 μL of a 10% DMSO in RPMI-1640 media solution without compound as the control sample for maximal cell proliferation (AMax). The samples were mixed by agitation and then incubated at 37° C. for 48 h in a 5% CO2-95% humidity incubator. After incubation, the samples were removed from the incubator and 20 μL of CellTiter 96 AQUEOUS One Solution Cell Proliferation™ reagent (Promega) was added. The samples were mixed by agitation and incubated at 37° C. for 2-4 h in a 5% CO2-95% humidity incubator. Using an absorbance plate reader (Model 1420 Wallac Instruments), an initial reading (T=0) was made approximately 1-2 min after addition of the solution, employing absorbance at 490 nm. This determines the possible background absorbance of the test compounds. No absorbance for N,N′-bis-(3-trifluoromethyl-phenyl)-2-(4-isopropyl-benzylidene)-malonamide was found at 490 nm. After the 2-4 h incubation, the samples were read for absorbance as above (ATest).
(§2) Baseline for GI50 (dose for 50% inhibition of cell proliferation) of initial cell numbers were determined by adding an aliquot of 90 μL of cells or 90 μL of media, respectively, to wells of a 96-well microtiter plate containing 10 μL of a 10% DMSO in RPMI-1640 media solution. The samples were mixed by agitation and then incubated at 37° C. for 0.5 h in a 5% CO2-95% humidity incubator. After incubation, the samples were removed from the incubator and 20 μL of CellTiter 96 AQUEOUS One Solution Cell Proliferation™ reagent (Promega) was added. The samples were mixed by agitation and incubated at 37° C. for 2-4 h in a 5% CO2-95% humidity incubator. Absorbance was read as above, (AStart) defining absorbance for initial cell number used as baseline in GI50 determinations.
(§3) GI50 (dose for 50% inhibition of cell proliferation) is the concentration where [(ATest−AStart)/(AMax−AStart)]=0.5.

T-47D [2] = assay: Caspase cascade activation (Ac-DEVD-R110 fluorogenic substrate) in T-47D cells; assay type: cell-based, Human; details: 24 h incubation
Procedure: (§4) Human breast cancer cell lines T-47D and ZR-75-1 were grown according to media component mixtures designated by American Type Culture Collection +10% FCS (Invitrogen Corporation), in a 5% CO2-95% humidity incubator at 37° C. T-47D and ZR-75-1 cells were maintained at a cell density between 30 and 80% confluency and for HL-60 at a cell density of 0.1 to 0.6×10^6 cells/mL. Cells were harvested at 600×g and resuspended at 0.65×10^6 cells/mL into appropriate media +10% FCS. An aliquot of 45 μL of cells was added to a well of a 96-well microtiter plate containing 5 μL of a 10% DMSO in RPMI-1640 media solution containing 1.6 to 100 μM of N,N′-bis-(3-trifluoromethyl-phenyl)-2-(4-isopropyl-benzylidene)-malonamide or other test compound (0.16 to 10 μM final). An aliquot of 45 μL of cells was added to a well of a 96-well microtiter plate containing 5 μL of a 10% DMSO in RPMI-1640 media solution without test compound as the control sample. The samples were mixed by agitation and then incubated at 37° C. for 24 h in a 5% CO2-95% humidity incubator. After incubation, the samples were removed from the incubator and […] of a solution containing 20 μM of N-(Ac-DEVD)-N′-ethoxycarbonyl-R110 fluorogenic substrate (SEQ ID NO:1) (Cytovia, Inc.; U.S. Pat. No. 6,335,429), 20% sucrose (Sigma), 20 mM DTT (Sigma), 200 mM NaCl (Sigma), 40 mM Na PIPES buffer pH 7.2 (Sigma), and 500 μg/mL lysolecithin (Calbiochem) was added. The samples were mixed by agitation and incubated at room temperature. Using a fluorescent plate reader (Model 1420 Wallac Instruments), an initial reading (T=0) was made approximately 1-2 min after addition of the substrate solution, employing excitation at 485 nm and emission at 530 nm, to determine the background fluorescence of the control sample. After approximately 3 h of incubation, the samples were read for fluorescence as above (T=3 h).
(§5) The relative Fluorescence Unit values (RFU) were used to calculate the sample readings as follows: RFU(T=3h)−Control RFU(T=0)=Net RFU(T=3h)
(§6) The activity of caspase cascade activation was determined by the ratio of the net RFU value for N,N′-bis-(3-trifluoromethyl-phenyl)-2-(4-isopropyl-benzylidene)-malonamide to that of control samples. The EC50 (nM) was determined by a sigmoidal dose-response calculation (Prism 2.0, GraphPad Software Inc.).

Jurkat cells = assay: Drug induced apoptosis in Jurkat cells (propidium iodide flow cytometry); assay type: cell-based; details: 24 h
Procedure: FIGS. 1A-C are graphs showing drug induced apoptosis in Jurkat cells. FIG. 1A: control cells (DMSO treated) showing most of the cells in G1 (M2). FIG. 1B: cells treated with 0.5 μM of N,N′-bis-(3-trifluoromethyl-phenyl)-2-(4-isopropyl-benzylidene)-malonamide for 24 h showing 50% of the cells in M1 (subdiploid apoptotic cells). FIG. 1C: cells treated with 1 μM of N,N′-bis-(3-trifluoromethyl-phenyl)-2-(4-isopropyl-benzylidene)-malonamide for 24 h showing 77% of the cells in M1 (subdiploid apoptotic cells).
(§7) Jurkat cells were incubated with N,N′-bis-(3-trifluoromethyl-phenyl)-2-(4-isopropyl-benzylidene)-malonamide (0.5 μM and 1 μM) for 24 h under normal growth conditions; control cultures were treated with DMSO vehicle. Cells were harvested at 1200 rpm and washed twice with 5 mM EDTA/PBS. Cells were then resuspended in 300 μl EDTA/PBS and […] of 100% ethanol, vortexed and incubated at room temperature for 1 h. Samples were spun down at 12000 rpm for 5 min and the supernatant was removed. A solution containing 100 μg/ml of propidium iodide and 1 mg/ml of RNAse A (fresh) was added to the samples and incubated for 1 h at room temperature. Samples were then transferred to 12×75 mm polystyrene tubes and analysed on a flow cytometer. All flow cytometry analyses were performed on FACScalibur (Becton Dickinson) using Cell Quest analysis software.

T47D cells = assay: Drug induced apoptosis in T47D cells (propidium iodide flow cytometry); assay type: cell-based, Human; details: 1.7 μM, 24 h
Procedure: FIGS. 2A-B are graphs showing drug induced apoptosis in T47D cells. FIG. 2A: control cells (DMSO treated) showing most of the cells in G1 (M2). FIG. 2B: cells treated with 1.7 μM of N,N′-bis-(3-trifluoromethyl-phenyl)-2-(4-isopropyl-benzylidene)-malonamide for 24 h showing 88% of the cells in M1 (subdiploid apoptotic cells).
as §7
T47D breast cancer cell line was maintained and harvested as described in Example 105. […] Cells were harvested and treated with propidium iodide and analysed on a flow cytometer as described in Example 107.

DLD-1 = assay: Inhibition of cell proliferation (GI50, CellTiter 96 AQueous One) in DLD-1 cells; assay type: cell-based; details: Homo sapiens, 48 h incubation, read-out: GI50 (dose for 50% inhibition of cell proliferation)
Procedure: as §1, §2, §3

ZR-75-1 = assay: Caspase cascade activation (Ac-DEVD-R110 fluorogenic substrate) in ZR-75-1 cells; assay type: cell-based, Human; details: 24 h incubation
Procedure: as §4, §5, §6

[3] = ratio of net RFU to that of control samples

- GI50 (T-47D [1]): 0.18 µM
- EC50 (T-47D [2]; Homo sapiens, T47D, 0.16 to 10 μM final, read-out: Caspase potency EC50): 0.867 µM
- GI50 (DLD-1): 0.2 µM
- EC50 (ZR-75-1; Homo sapiens, 0.16 to 10 μM final, read-out: Caspase potency EC50): 1.4 µM
Structure (SMILES): CC(C)c1ccc(C=C(C(=O)Nc2cccc(C(F)(F)F)c2)C(=O)Nc2cccc(C(F)(F)F)c2)cc1 [Example 3, N,N′-Bis-(3-trifluoromethyl-phenyl)-2-(4-isopropyl-benzylidene)-malonamide]
- Caspase Activity Ratio (T-47D [2]; [3]): 15
- induction of apoptosis (in words) (Jurkat cells; 0.5 μM and 1 μM): induces massive apoptosis
- cells in M1 (subdiploid apoptotic cells) (Jurkat cells; 0.5 μM): 50%
- cells in M1 (subdiploid apoptotic cells) (Jurkat cells; 1 μM): 77%
- cells in M1 (subdiploid apoptotic cells) (T47D cells): 88%
- induction of apoptosis (in words) (T47D cells): induces massive apoptosis
- Caspase Activity Ratio (ZR-75-1; [3]): 17
